Experiments:
IRAK4 = IRAK4 (Homo sapiens (Human), UniProt Q9NWZ3); test: IRAK-4 biochemical kinase assay, AlphaScreen format; conditions: 1 nM IRAK4, 1.6 μM peptide, 10 μM ATP, 3.5 h at RT; class symbols
Method: The biochemical assay is in a AlphaScreen format. The kinase reaction is based on the IRAK-4 phosphorylation of a biotin labeled peptide. The phosphopeptide is incubated with anti-phosphothreonine antibody as well as streptavidin- and protein A-coated beads. Binding of the protein-A coated beads to the antibody and the streptavidin beads to the peptide, leads to an energy transfer from one bead to the other, ultimately producing a luminescent/fluorescent signal.

A549 cells = test: Cell-based assay, IL-6 ELISA quantification in IL-1 beta stimulated A549 cells; conditions: 2 ng/ml human IL-1 beta overnight, class symbols, read-out: Celluar Data EC50
Method: The cell-based assays is based on IL-6 ELISA quantification. Briefly, A549 cells are cultured in DMEM with 10% FBS medium. When cells reach 80% confluence they are trypsin treated and seeded in 96-well plate at 2.5×10^4 cells/well. Then, 20 ul of compound serial dilutions (starting at 10 uM, 10 points) are added to the cell plate; incubate for 1 hour at 37 C and stimulated with 2 ng/ml human IL-1 beta 37 C overnight. The next day 100 ul of cell supernatant per well are analyzed on a Human IL-6 Quantikine ELISA kit from R&D Systems.

Chain of IRAK4 (Q9NWZ3 whole entry, species assumed): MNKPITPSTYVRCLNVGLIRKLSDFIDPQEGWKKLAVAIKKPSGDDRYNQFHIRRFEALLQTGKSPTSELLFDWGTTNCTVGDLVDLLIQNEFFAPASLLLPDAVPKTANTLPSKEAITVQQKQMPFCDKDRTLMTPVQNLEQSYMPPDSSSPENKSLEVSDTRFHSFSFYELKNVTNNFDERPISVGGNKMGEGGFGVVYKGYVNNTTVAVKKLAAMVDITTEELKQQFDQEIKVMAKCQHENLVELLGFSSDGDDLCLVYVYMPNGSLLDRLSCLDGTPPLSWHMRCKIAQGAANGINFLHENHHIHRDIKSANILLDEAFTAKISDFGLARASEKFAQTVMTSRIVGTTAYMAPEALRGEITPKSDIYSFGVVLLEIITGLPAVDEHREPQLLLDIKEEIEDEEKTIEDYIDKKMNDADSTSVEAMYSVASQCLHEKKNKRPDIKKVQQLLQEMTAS

| SMILES | IC50 (IRAK4) [nM] | EC50 (A549 cells) [nM] |
| --- | --- | --- |
| O=C1Nc2ccccc2OCCCCCNc2cc(ccn2)-c2nc1co2 [Compound 2] | < 100 | < 1000 |
| O=C1Nc2ccccc2OCCCCOCc2cc(ccn2)-c2nc1co2 [Compound 4] | < 100 | > 10000 |
| O=C1Nc2ccccc2OCCCCCCn2cc(cn2)-c2nc1co2 [Compound 7] | < 100 | < 10000 |
| O=C1Nc2ccccc2OC(CO)CCCCNc2cc(ccn2)-c2nc1co2 (centres unmarked) [Compound 12] | < 100 | < 1000 |
| CN(C)CCNC(=O)c1ccc2c(c1)NC(=O)c1csc(n1)-c1ccnc(c1)NCCCCCO2 [Compound 16] | < 100 | > 10000 |
| Cn1cc2c(n1)C(=O)NCCCCCCCCNc1cc(ccn1)-c1nc(co1)C(=O)N2 [Compound 29] | < 100 | < 1000 |
| Cn1cc2c(n1)C(=O)NCCCCCCNc1cc(ccn1)-c1nc(co1)C(=O)N2 [Compound 32] | < 100 | < 1000 |
| Cn1cc2c(n1)C(=O)NCCCCOc1cc(ccn1)-c1nc(co1)C(=O)N2 [Compound 34] | < 100 | < 1000 |
| O=C1Nc2cn(C3CCOCC3)nc2C(=O)NCCCCCc2cc(ccn2)-c2nc1co2 [Compound 40] | < 100 | < 10000 |
| Cn1cc2c(n1)C(=O)NCCOCCOc1cc(ccn1)-c1nc(cs1)C(=O)N2 [Compound 43] | < 100 | < 10000 |
| O=C1Nc2cn(C3CCOCC3)nc2C(=O)NCCOCCOc2cc(ccn2)-c2nc1cs2 [Compound 44] | < 100 | < 10000 |
| Cn1cc2c(n1)C(=O)NCCOCCNc1cc(ccn1)-c1nc(cs1)C(=O)N2 [Compound 45] | < 100 | < 1000 |
| O=C1Nc2cn(C3CCOCC3)nc2C(=O)NCCOCCNc2cc(ccn2)-c2nc1cs2 [Compound 46] | < 100 | < 1000 |
| O=C1Nc2cn(C3CCOCC3)nc2C(=O)NCCOCCCc2cc(ccn2)-c2nc1cs2 [Compound 47] | < 100 | < 1000 |
| Cn1cc2c(n1)C(=O)NCCOCCCc1cc(ccn1)-c1nc(cs1)C(=O)N2 [Compound 48] | < 100 | < 10000 |
| O=C1NC[C@H]2CC[C@@H](C2)OCCCNc2cc(ccn2)-c2nc1cs2 [Example 82] | < 1000 | < 10000 |
| O=C1NC[C@@H]2CC[C@@H](C2)OCCCNc2cc(ccn2)-c2nc1cs2 [Example 83] | < 100 | < 10000 |
| O=C1Nc2cn(C3CCOCC3)nc2C(=O)NCCCCOc2cc(ccn2)-c2nc1cs2 [Example 90] | < 100 | < 10000 |
| Cn1cc2c(n1)C(=O)NCCCCOc1cc(ccn1)-c1nc(cs1)C(=O)N2 [Example 91] | < 100 | < 1000 |
| O=C1Nc2cn(C3CCOCC3)nc2C(=O)NCCCCCc2cc(ccn2)-c2nc1cs2 [Example 95] | < 100 | < 1000 |
| Cn1cc2c(n1)C(=O)NCCCCCc1cc(ccn1)-c1nc(cs1)C(=O)N2 [Example 96] | < 100 | < 10000 |
| CC(C)(C)OC(=O)N1CCN(CCn2ncc3c2C(=O)NCCOCCOc2cc(ccn2)-c2nc(cs2)C(=O)N3)CC1 [Example 108] | < 1000 | > 10000 |
| O=C1Nc2cnn(CCN3CCNCC3)c2C(=O)NCCOCCOc2cc(ccn2)-c2nc1cs2 [Example 109] | < 10000 | > 10000 |
| O=C1Nc2cn(C3CCCCO3)nc2C(=O)NCCOCCOc2cc(ccn2)-c2nc1cs2 (centres unmarked) [Example 110] | < 100 | < 10000 |
| CN(C)CCn1cc2c(n1)C(=O)NCCOCCOc1cc(ccn1)-c1nc(cs1)C(=O)N2 [Example 111] | < 1000 | > 10000 |
| O=C1Nc2cn(CCN3CCOCC3)nc2C(=O)NCCOCCOc2cc(ccn2)-c2nc1cs2 [Example 112] | < 100 | < 10000 |
| CN1CCN(CCn2cc3c(n2)C(=O)NCCOCCOc2cc(ccn2)-c2nc(cs2)C(=O)N3)CC1 [Example 113] | < 100 | < 10000 |

| SMILES | IC50 (IRAK4) [nM] | EC50 (A549 cells) [nM] |
| --- | --- | --- |
| CC(C)(C)OC(=O)N1CCN(CCn2cc3c(n2)C(=O)NCCOCCOc2cc(ccn2)-c2nc(cs2)C(=O)N3)CC1 [Example 114] | < 100 | > 10000 |
| O=C1Nc2cn(CCN3CCNCC3)nc2C(=O)NCCOCCOc2cc(ccn2)-c2nc1cs2 [Example 115] | < 100 | < 10000 |
| O=C1Nc2cn(CCN3CCCCC3)nc2C(=O)NCCOCCOc2cc(ccn2)-c2nc1cs2 [Example 116] | < 100 | > 10000 |
| CN(C)CCn1cc2c(n1)C(=O)NCCOCCNc1cc(ccn1)-c1nc(cs1)C(=O)N2 [Example 117] | < 100 | < 10000 |
| O=C1Nc2cn(CCN3CCOCC3)nc2C(=O)NCCOCCNc2cc(ccn2)-c2nc1cs2 [Example 118] | < 100 | < 1000 |
| O=C1Nc2cn(CCN3CCCCC3)nc2C(=O)NCCOCCNc2cc(ccn2)-c2nc1cs2 [Example 119] | < 100 | < 1000 |
| Cn1cc2c(n1)C(=O)NCCCOCCOc1cc(ccn1)-c1nc(cs1)C(=O)N2 [Example 120] | < 100 | < 1000 |
| O=C1Nc2cn(C3CCOCC3)nc2C(=O)NCCCOCCOc2cc(ccn2)-c2nc1cs2 [Example 121] | < 100 | < 10000 |
| Cn1cc2c(n1)C(=O)NCCOCCCOc1cc(ccn1)-c1nc(cs1)C(=O)N2 [Example 122] | < 100 | < 1000 |
| O=C1Nc2cn(C3CCOCC3)nc2C(=O)NCCOCCCOc2cc(ccn2)-c2nc1cs2 [Example 123] | < 100 | < 1000 |
| O=C1Nc2cn(C3CCOCC3)nc2C(=O)NCCCOCCOc2cc(ccn2)-c2nc1co2 [Example 125] | < 100 | < 1000 |
| O=C1CCNC(=O)c2csc(n2)-c2ccnc(c2)OCCOCCN1 [Example 126] | < 1000 | > 10000 |
| O=C1Nc2ccccc2C(=O)NCCOCCOc2cc(ccn2)-c2nc1cs2 [Example 127] | < 100 | < 1000 |
| O=C1Nc2cccnc2C(=O)NCCOCCOc2cc(ccn2)-c2nc1cs2 [Example 128] | < 100 | > 10000 |
| O=C1Nc2ccncc2C(=O)NCCOCCOc2cc(ccn2)-c2nc1cs2 [Example 129] | < 100 | < 1000 |
| O=C1Nc2cnccc2C(=O)NCCOCCOc2cc(ccn2)-c2nc1cs2 [Example 130] | < 100 | < 1000 |
| Cn1cc2c(n1)C(=O)NCCCCNc1cc(ccn1)-c1nc(cs1)C(=O)N2 [Example 131] | < 100 | < 1000 |
| O=C1Nc2cn(C3CCOCC3)nc2C(=O)NCCCCNc2cc(ccn2)-c2nc1cs2 [Example 132] | < 100 | < 1000 |
| Cn1cc2c(n1)C(=O)NCCOCCc1cc(ccn1)-c1nc(cs1)C(=O)N2 [Example 133] | < 1000 | < 10000 |
| O=C1Nc2cn(C3CCOCC3)nc2C(=O)NCCOCCc2cc(ccn2)-c2nc1cs2 [Example 134] | < 100 | > 10000 |
| Cn1cc2c(n1)C(=O)NCCOCCCn1cc(cn1)-c1nc(cs1)C(=O)N2 [Example 135] | < 100 | < 1000 |
| O=C1Nc2cn(C3CCOCC3)nc2C(=O)NCCOCCCn2cc(cn2)-c2nc1cs2 [Example 136] | < 100 | < 1000 |
| CC(C)(C)OC(=O)Cn1cc2c(n1)C(=O)NCCOCCOc1cc(ccn1)-c1nc(cs1)C(=O)N2 [Example 137] | < 100 | > 10000 |
| CN(C)CCCn1cc2c(n1)C(=O)NCCOCCOc1cc(ccn1)-c1nc(cs1)C(=O)N2 [Example 138] | < 100 | > 10000 |
| CCn1cc2c(n1)C(=O)NCCOCCOc1cc(ccn1)-c1nc(cs1)C(=O)N2 [Example 139] | < 100 | > 10000 |
| Cn1cc2c(n1)C(=O)NCCC/C=C/CCCNc1cc(ccn1)-c1nc(co1)C(=O)N2 [Example 140] | < 100 | < 1000 |
| O=C1CCc2cc(ccn2)-c2nc(cs2)C(=O)Nc2cn(C3CCOCC3)nc2C(=O)NCCN1 [Example 225] | < 100 | – |
